Measurements reported in patent US5254579A, “N-(5-thioxo-L-prolyl)-L-cysteine, derivatives thereof, processes for the preparation thereof and pharmaceutical compositions containing them” (Poli Industria Chimica S.p.A., priority 1991, dated 1993).
Where a SMILES comes first, the peptide text is derived from it. [ ]: non-standard residue; d: D form. pGlu = O=C1CC[C@@H](C(=O)O)N1

Experiments:
[1] = tested on: elimination of phenol red from the respiratory fluid; experiment: Mucosecretolytic activity (phenol red test in the mouse); assay type: in vivo; conditions: 100 mg/kg os; for Mean secretion (total μg) (mean ± S.E.): controls 2.73 ± 0.18, **p <0.01 Dunnett's "t" test
[2] = In vitro antioxidant activity (DPPH test); assay type: biochemical
From the text: The antioxidant (radical-scavenger) activity was studied by means of the DPPH in vitro test and with the paracetamol in vivo test.

[3] = tested on: paracetamol acute toxicity; experiment: In vivo antioxidant activity (paracetamol test); design: species or system Male Crl: CD-1 (ICR) BR mice; conditions: 100 mg/kg os 30 minutes before and 5 hours after paracetamol 1000 mg/kg i.p., 6 days; for Mortality (%): controls 90%
Method: The in vivo antioxidant (radical scavenger) activity was evidenced by means of the protection test against paracetamol acute toxicity. Male Crl: CD-1 (ICR) BR mice, weighing 25-30 g, were treated intraperitoneally with 1000 mg/kg (1 ml/kg) of paracetamol dissolved in 20% DMF in water immediately before the administration.
In vivo antioxidant activity (paracetamol test)

[4] = known from EP-A-332,946; in words; cited from earlier work

COC(=O)[C@H](CS)NC(=O)[C@@H]1CCC(=O)N1 [Ic, N-(5-oxo-L-prolyl)-L-cysteine methyl ester] ([pGlu]-Cys-OMe)
Variat. (%) of mean secretion vs controls [1]: +143.2% | Mean secretion (total μg) (mean ± S.E.) [1]: 6.64 ± 1.00 µg | Variat. (%) of absorbancies ([2]; 5.10^-5 M, 50 µM): -49.1% | Variat. (%) of absorbancies ([2]; 10^-4 M, 100 µM): -82.7% | Variat. (%) of absorbancies ([2]; 10^-5 M, 10 µM): -10.4% | Mortality, Variat. vs controls (%) [3]: 45.4% | Mortality (%) [3]: 50%

O=C1O[C@H]([C@@H](O)CO)C(O)=C1O [L-ascorbic acid]
Variat. (%) of absorbancies ([2]; 5.10^-5 M, 50 µM): -49.5% | Variat. (%) of absorbancies ([2]; 10^-4 M, 100 µM): -86.0% | Variat. (%) of absorbancies ([2]; 10^-5 M, 10 µM): -17.6%

N[C@@H](CS)C(=O)O [L-cysteine]
Variat. (%) of absorbancies ([2]; 5.10^-5 M, 50 µM): -56.5% | Variat. (%) of absorbancies ([2]; 10^-4 M, 100 µM): -83.7% | Variat. (%) of absorbancies ([2]; 10^-5 M, 10 µM): -10.9%

O=C(O)[C@H](CS)NC(=O)[C@@H]1CCC(=S)N1 [Ie, N-(5-thioxo-L-prolyl)-L-cysteine]
Variat. (%) of mean secretion vs controls [1]: +112.8% | Mean secretion (total μg) (mean ± S.E.) [1]: 5.81 ± 0.62 µg | Variat. (%) of absorbancies ([2]; 5.10^-5 M, 50 µM): -51.8% | Variat. (%) of absorbancies ([2]; 10^-4 M, 100 µM): -83.1% | Variat. (%) of absorbancies ([2]; 10^-5 M, 10 µM): -14.3% | Mortality, Variat. vs controls (%) [3]: 66.7% | Mortality (%) [3]: 30%

CC(=O)N[C@@H](CS)C(=O)O [N-acetyl-L-cysteine]
Variat. (%) of mean secretion vs controls [1]: +61.9% | Mean secretion (total μg) (mean ± S.E.) [1]: 4.42 ± 0.83 µg | Variat. (%) of absorbancies ([2]; 5.10^-5 M, 50 µM): -47.9% | Variat. (%) of absorbancies ([2]; 10^-4 M, 100 µM): -86.3% | Variat. (%) of absorbancies ([2]; 10^-5 M, 10 µM): -10.4% | Mortality, Variat. vs controls (%) [3]: 45.4% | Mortality (%) [3]: 50%

O=C1CC[C@@H](C(=O)N[C@@H](CS)C(=O)O)N1 [N-(5-oxo-L-prolyl)-L-cysteine] ([pGlu]-Cys-OH)
Variat. (%) of mean secretion vs controls [1]: +92.7% | Mean secretion (total μg) (mean ± S.E.) [1]: 5.26 ± 0.25 µg | Variat. (%) of absorbancies ([2]; 5.10^-5 M, 50 µM): -49.6% | Variat. (%) of absorbancies ([2]; 10^-4 M, 100 µM): -88.1% | Variat. (%) of absorbancies ([2]; 10^-5 M, 10 µM): -29.6% | Mortality, Variat. vs controls (%) [3]: 66.7% | Mortality (%) [3]: 30% | anticataractogenic activity [4]: known to have anticataractogenic activity

COC(=O)[C@H](CS)NC(=O)[C@@H]1CCC(=S)N1 [Id, N-(5-thioxo-L-prolyl)-L-cysteine methyl ester]
Variat. (%) of mean secretion vs controls [1]: +97.4% | Mean secretion (total μg) (mean ± S.E.) [1]: 5.39 ± 0.59 µg | Variat. (%) of absorbancies ([2]; 5.10^-5 M, 50 µM): -51.8% | Variat. (%) of absorbancies ([2]; 10^-4 M, 100 µM): -79.1% | Variat. (%) of absorbancies ([2]; 10^-5 M, 10 µM): -14.3% | Mortality, Variat. vs controls (%) [3]: 45.4% | Mortality (%) [3]: 50%
